Data published in patent US9868711B2, “Phenazine-3-one and phenothiazine-3-one derivatives for treatment of oxidative stress disorders” (BioElectron Technology Corporation, priority 2013, dated 2018).
Where two headings read alike, the source gives them in different places.

Tested on: Human dermal fibroblasts from Friedreich's Ataxia patients
Assay: Rescue of FRDA fibroblasts stressed by BSO (Calcein AM viability)
Format: cell-based
Settings: FRDA fibroblasts GM04078, 1 mM BSO, 48 h
Procedure: An initial screen was performed to identify compounds effective for the amelioration of redox disorders. Test samples, 4 reference compounds (idebenone, decylubiquinone, Trolox and alpha-tocopherol), and solvent controls were tested for their ability to rescue FRDA fibroblasts stressed by addition of L-buthionine-(S,R)-sulfoximine (BSO), as described in Jauslin et al., Hum. Mol. Genet. 11(24):3055 (2002), Jauslin et al., FASEB J. 17:1972-4 (2003), and International Patent Application WO 2004/003565. […] This specific BSO-mediated cell death can be prevented by administration of antioxidants or molecules involved in the antioxidant pathway, such as alpha-tocopherol, selenium, or small molecule glutathione peroxidase mimetics. However, antioxidants differ in their potency, i.e. the concentration at which they are able to rescue BSO-stressed FRDA fibroblasts.
MEM (a medium enriched in amino acids and vitamins, catalog no. 1-31F24-I) and Medium 199 (M199, catalog no. 1-21F22-I) with Earle's Balanced Salts, without phenol red, were purchased from Bioconcept. Fetal Calf Serum was obtained from PAA Laboratories. Basic fibroblast growth factor and epidermal growth factor were purchased from PeproTech. Penicillin-streptomycin-glutamine mix, L-buthionine (S,R)-sulfoximine, (+)-alpha-tocopherol, decylubiquinone, and insulin from bovine pancreas were purchased from Sigma. Trolox (6-Hydroxy-2,5,7,8-tetramethylchromane-2-carboxylic acid) was obtained from Fluka. Idebenone was obtained from Chemo Iberica. Calcein AM was purchased from Anaspec. Cell culture medium was made by combining 125 ml M199 EBS, 50 ml Fetal Calf Serum, 100 U/ml penicillin, 100 microgram/ml streptomycin, 2 mM glutamine, 10 microgram/ml insulin, 10 ng/ml EGF, and 10 ng/ml bFGF; MEM EBS was added to make the volume up to 500 ml. A 10 mM BSO solution was prepared by dissolving 444 mg BSO in 200 ml of medium (Invitrogen, Carlsbad, Ca.) with subsequent filter-sterilization. During the course of the experiments, this solution was stored at +4° C. The cells were obtained from the Coriell Cell Repositories (Camden, N.J.; repository number GM04078) and grown in 10 cm tissue culture plates. Every third day, they were split at a 1:3 ratio.
The test samples were supplied in 1.5 ml glass vials. The compounds were diluted with DMSO, ethanol or PBS to result in a 5 mM stock solution. Once dissolved, they were stored at −20° C. Reference antioxidants (idebenone, decylubiquinone, alpha-tocopherol and Trolox) were dissolved in DMSO.
Test samples were screened according to the following protocol:
A culture with FRDA fibroblasts was started from a 1 ml vial with approximately 500,000 cells stored in liquid nitrogen. Cells were propagated in 10 cm cell culture dishes by splitting every third day in a ratio of 1:3 until nine plates were available. Once confluent, fibroblasts were harvested. For 54 micro titer plates (96 well-MTP) a total of 14.3 million cells (passage eight) were re-suspended in 480 ml medium, corresponding to 100 microliters medium with 3,000 cells/well. The remaining cells were distributed in 10 cm cell culture plates (500,000 cells/plate) for propagation. The plates were incubated overnight at 37° C. in a atmosphere with 95% humidity and 5% CO2 to allow attachment of the cells to the culture plate.
10% DMSO (242.5 microliters) was added to a well of the microtiter plate. The test compounds were unfrozen, and 7.5 microliters of a 5 mM stock solution was dissolved in the well containing 242.5 microliters of 10% DMSO, resulting in a 150 micromolar master solution. Serial dilutions from the master solution were made. The period between the single dilution steps was kept as short as possible (generally less than 30 seconds). At least 4 hours after attachment into MTP, cells were then treated with the various compound dilutions.
Plates were kept overnight in the cell culture incubator. […]

[1] = Homo sapiens, average, compounds of the invention, read-out: Ec50 Average

COC1=C(OC)C(=O)C(CCCCCCCCCCO)=C(C)C1=O [Idebenone]
EC50 (Homo sapiens, third of three experiments, read-out: EC50 Value 3): 1 µM

Cc1c(C)c2c(c(C)c1O)CCC(C)(C(=O)O)O2 (stereo not drawn) [Trolox, 6-Hydroxy-2,5,7,8-tetramethylchromane-2-carboxylic acid]
EC50 (Homo sapiens, first of three experiments, read-out: EC50 Value 1): 9 µM

Cc1cc(=O)c(C)c2sc3ccccc3nc1-2 [Compound 1]
EC50 [1]: 0.003 µM

Cc1c(C)c2c(c(C)c1O)CC[C@@](C)(CCC[C@H](C)CCC[C@H](C)CCCC(C)C)O2 [alpha-tocopherol]
EC50 (average of three values, control compounds, read-out: EC50 Average): 0.3 µM | EC50 (first of three experiments, read-out: EC50 Value 1): 0.4 µM | EC50 (second of three experiments, read-out: EC50 Value 2): 0.15 µM | EC50 (third of three experiments, read-out: EC50 Value 3): 0.35 µM

CN(C)c1ccc2nc3ccc(=O)cc-3sc2c1 [Compound 2]
EC50 [1]: 0.003 µM

O=c1ccc2nc3ccc(C(F)(F)F)cc3sc-2c1 [Compound 3]
EC50 [1]: 0.028 µM
